Values joined by “and” are separate entries in the source; they are usually repeats but may differ in a detail not shown here. Identical values can stand only once.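 Tested at 5 concentrations; 48 h exposure; 96-well plates; endpoints linearly interpolated, else capped at highest concentration. Abbreviation: GI50, concentration required for 50% inhibition of growth. Definition used: TGI = concentration required for complete inhibition of growth.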
What was measured:
Test in all cases: growth of human tumour cells (NCI), 48 h
SK-MEL-2 melanoma = system: SK-MEL-2 melanoma
NCI-H460 lung = system: NCI-H460 lung
U251 CNS = system: U251 CNS
CAKI-1 renal = system: CAKI-1 renal
A498 renal = system: A498 renal
SK-MEL-28 melanoma = system: SK-MEL-28 melanoma
UO-31 renal = system: UO-31 renal
IGROV1 ovarian = system: IGROV1 ovarian
SNB-75 CNS = system: SNB-75 CNS
LOX IMVI melanoma = system: LOX IMVI melanoma

| Structure (SMILES) | TGI (SK-MEL-2 melanoma) | TGI (NCI-H460 lung) | TGI (U251 CNS) | TGI (CAKI-1 renal) | TGI (A498 renal) [µM] | TGI (SK-MEL-28 melanoma) [µM] | TGI (UO-31 renal) [µM] | TGI (IGROV1 ovarian) [µM] | TGI (SNB-75 CNS) | TGI (LOX IMVI melanoma) | GI50 (CAKI-1 renal) | GI50 (A498 renal) | GI50 (SK-MEL-2 melanoma) [µM] | GI50 (NCI-H460 lung) [µM] | GI50 (U251 CNS) [µM] | GI50 (SK-MEL-28 melanoma) [µM] | GI50 (UO-31 renal) [µM] | GI50 (IGROV1 ovarian) [µM] | GI50 (SNB-75 CNS) [µM] | GI50 (LOX IMVI melanoma) [µM] |
| --- | --- | --- | --- | --- | --- | --- | --- | --- | --- | --- | --- | --- | --- | --- | --- | --- | --- | --- | --- | --- |
| CC1(C)CC[C@]2(C(=O)O)[C@H](O)C[C@]3(C)C(=CC[C@@H]4[C@@]5(C)CC[C@H](OC6OC(C(=O)O)C(O)C(O)C6O)C(C)(C)[C@@H]5CC[C@]43C)[C@@H]2C1 (some centres not stated) | > 100 µM | > 100 µM | > 100 µM | > 100 µM | 37.4 | 37.1 | 32 | > 100 | > 100 µM | > 100 µM |  |  |  |  |  |  |  |  |  |  |
| CCCCCCCCCCSCC(CO)NC(=O)/C=C/c1c(C)[nH]c(=O)[nH]c1=O (configuration not stated) | 14.3 µM and 5.19 µM | 18.2 µM and 49.5 µM | 3.7 µM and 10.7 µM | 8.25 µM and > 50 µM | > 50 | > 50 | > 50 | > 50 | 12.9 µM and 18.1 µM | 23.8 µM and > 50 µM | 1.01 µM and 3.68 µM | 1.98 µM and 4.94 µM |  |  |  |  |  |  |  |  |
| O=[N+]([O-])c1ccc2ncccc2c1CCc1c([N+](=O)[O-])ccc2ncccc12 | > 100 µM | > 100 µM | > 100 µM | > 100 µM | > 100 | > 100 | > 100 | > 100 | > 100 µM | > 100 µM |  |  |  |  |  |  |  |  |  |  |
| CC[C@H](C)C1=C(OC(C)=O)[N@+]2([O-])Oc3ccc(-c4c(OC(C)=O)c(OC(C)=O)c(-c5ccc(OC(C)=O)cc5)c(OC(C)=O)c4OC(C)=O)cc3O[C@]2([C@@H](C)CC)C(=O)N1OC(C)=O | 24.1 µM | > 50 µM | > 50 µM | > 50 µM | 42.5 | > 50 | > 50 | 27.6 | 39.5 µM | 22.1 µM |  |  |  |  |  |  |  |  |  |  |
| CC(=O)OCC1OC(N2C(S)=C(C#N)C(c3ccco3)C(C(C)=O)=C2c2ccccc2)C(OC(C)=O)C(OC(C)=O)C1OC(C)=O (configuration not stated) | > 100 µM | > 100 µM | > 100 µM | > 100 µM | > 100 | > 100 | 91.4 | > 100 | > 100 µM | > 100 µM |  |  |  |  |  |  |  |  |  |  |
| COc1ccc2[nH]c(O)c(/C=c3/cc4c(c(-c5ccc(F)cc5)n3)=Nc3ccccc3-4)c2c1 | 30.7 µM | 4.01 µM | 3.26 µM | 36.8 µM | 34.3 | 4.58 | 30.3 | 48.8 | 27.4 µM | 3.2 µM | 18.2 µM | 13.2 µM | 12.6 | 1.82 | 1.68 | 1.92 | 15.5 | 19.6 | 13 | 1.64 |
| CC1CN=C(c2ccc(COc3ccc(C4=NCC(C)N4)cc3)cc2)N1 (configuration not stated) | 58.4 µM | > 100 µM | > 100 µM | > 100 µM | > 100 | > 100 | > 100 | > 100 | 64.4 µM | > 100 µM |  |  |  |  |  |  |  |  |  |  |
| CCCCCCCCCCCCCCCCP(=O)([O-])OCC[N+](C)(C)C | 31.5 µM | 18.8 µM | 31.2 µM | 25.4 µM | 29.1 | 33.8 | 28.2 | 7.2 | 29 µM | 29 µM |  |  |  |  |  |  |  |  |  |  |
| C[N+](C)(N)c1nc(N)c(C#N)c(C#N)c1C#N | > 10 µM | > 10 µM | > 10 µM | > 10 µM | > 10 | > 10 | > 10 | > 10 | > 10 µM | > 10 µM |  |  |  |  |  |  |  |  |  |  |
| COC(=O)[C@H](CCSC)NC(=O)c1ccc(CNC(=O)/C(C)=C/c2ccccc2)cc1 | 66.3 µM | > 100 µM | > 100 µM | > 100 µM | > 100 | 64.7 | > 100 | > 100 | 28.4 µM | > 100 µM |  |  |  |  |  |  |  |  |  |  |
| COc1ccc(C[C@@H]2OC3(C=CC(=O)C=C3)O[C@H]2Cc2ccc(OC)cc2)cc1 | 3.41 µM | 25.1 µM | 2.75 µM | 1.38 µM | 14.8 | 3.13 | 0.379 | 1.16 | 3.04 µM | 0.377 µM |  |  |  |  |  |  |  |  |  |  |
| C=CC(Br)(CBr)CCC(Br)C(C)C (configuration not stated) | 12.8 µM | 18.4 µM | 12.6 µM | 16.3 µM | 32.8 | 16.8 | 26.3 | 11.1 | 6.13 µM | 3.1 µM |  |  |  |  |  |  |  |  |  |  |
| O=C1C[C@H](c2ccc(O)c(O)c2)Oc2cc(O)cc(O)c21 | > 100 µM | > 100 µM | > 100 µM | > 100 µM | > 100 | > 100 | > 100 | > 100 | > 100 µM | > 100 µM |  |  |  |  |  |  |  |  |  |  |
| CC1(C)C2CCC(N)(C2)C1O (configuration not stated) | > 100 µM | > 100 µM | > 100 µM | > 100 µM | > 100 | > 100 | > 100 | > 100 | > 100 µM | > 100 µM |  |  |  |  |  |  |  |  |  |  |
| CC(C)N(C(C)C)P(OCCC#N)OC1CC(n2cnc3c(=O)[nH]cnc32)OC1COC(=O)NCCCCCCNC(=O)OC(C)(C)c1ccc(-c2ccccc2)cc1 (configuration not stated) | > 100 µM | 65 µM | 43 µM | > 100 µM | > 100 | 57 | 31.3 | 38.4 | 53.7 µM | 32.7 µM |  |  |  |  |  |  |  |  |  |  |

Source: PubChem BioAssay (NCI)
